Source: patent US20100003246A1, “Novel heterocyclic compounds and uses therof” (priority 2008, published 2010)

What follows are molecules tested against T1, b-Raf(V600E) (Homo sapiens, UniProt P15056, V600E) (assay: Raf/Mek Amplified Luminescence Proximity Homogeneous Assay (Alpha Screen), b-Raf(V600E)). Details: mutant b-Raf(V600E), read-out: mut-b-RAF (IC50 in uM).
T1 construct: made in house
Type: biochemical
How it was run: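 Active b-Raf(V600E) (~4 pM) pre-incubated 60 min at room temperature with compound and kinase-dead biotinylated Mek (~10 nM) in Tris pH 7.5, MgCl2, BSA, DTT; ATP-started reaction ran 3 h, EDTA-stopped. Phospho-MEK detected by anti-p-MEK AlphaScreen luminescence; IC50 by non-linear regression.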

T1 sequence (P15056 whole entry V600E): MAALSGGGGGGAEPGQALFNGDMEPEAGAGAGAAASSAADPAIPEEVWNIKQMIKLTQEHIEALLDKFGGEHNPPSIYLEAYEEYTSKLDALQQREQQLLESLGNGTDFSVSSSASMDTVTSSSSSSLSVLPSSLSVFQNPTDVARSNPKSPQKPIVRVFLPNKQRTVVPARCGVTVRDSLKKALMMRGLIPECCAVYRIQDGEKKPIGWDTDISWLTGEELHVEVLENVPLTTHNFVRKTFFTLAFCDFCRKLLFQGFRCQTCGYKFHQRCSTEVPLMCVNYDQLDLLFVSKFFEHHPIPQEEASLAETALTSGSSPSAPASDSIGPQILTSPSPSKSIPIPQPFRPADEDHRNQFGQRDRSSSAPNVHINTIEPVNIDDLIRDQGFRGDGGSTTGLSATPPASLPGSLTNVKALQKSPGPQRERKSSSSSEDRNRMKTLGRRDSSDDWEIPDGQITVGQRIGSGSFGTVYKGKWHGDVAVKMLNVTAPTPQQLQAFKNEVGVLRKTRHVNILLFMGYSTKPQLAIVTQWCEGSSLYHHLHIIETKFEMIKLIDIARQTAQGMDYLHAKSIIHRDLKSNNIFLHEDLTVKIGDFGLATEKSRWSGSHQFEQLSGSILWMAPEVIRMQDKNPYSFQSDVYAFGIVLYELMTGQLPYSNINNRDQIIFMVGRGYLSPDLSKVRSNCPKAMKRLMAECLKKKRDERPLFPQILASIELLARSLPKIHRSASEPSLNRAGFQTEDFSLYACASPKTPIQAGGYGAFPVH

IC50 | Compound
0.0009 µM | COc1cc(-c2[nH]c(-c3ccc(C)cc3F)nc2-c2ccncc2)cnc1N [Compound 145, 5-(2-(2-fluoro-4-methylphenyl)-4-(pyridin-4-yl)-1H-imidazol-5-yl)-3-methoxypyridin-2-amine]
0.0003 µM | COc1cc(-c2nc(C(C)(C)C)[nH]c2-c2ccnc(Nc3ccc(N4C[C@@H](C)O[C@@H](C)C4)nc3)n2)cnc1N [Compound 184, 4-(4-(6-amino-5-methoxypyridin-3-yl)-2-tert-butyl-1H-imidazol-5-yl)-N-(6-((2R,6S)-2,6-dimethylmorpholino)-pyridin-3-yl)pyrimidin-2-amine]
0.0002 µM | COc1ccc(CNc2nccc(-c3[nH]c(C(C)(C)C)nc3-c3cnc(N)c(OC)c3)n2)cc1 [Compound 192, 4-(4-(6-amino-5-methoxypyridin-3-yl)-2-tert-butyl-1H-imidazol-5-yl)-N-(4-methoxybenzyl)pyrimidin-2-amine]
0.017 µM | CN(C)c1cncc(-c2[nH]c(-c3ccc(F)cc3)nc2-c2ccncc2)c1 [Compound 157, 5-(2-(4-fluorophenyl)-4-(pyridin-4-yl)-1H-imidazol-5-yl)-N,N-dimethylpyridin-3-amine]
0.0004 µM | CCc1nc(-c2cnc(N)c(OC)c2)c(-c2ccnc(Nc3ccnc(OC)c3)n2)[nH]1 [Compound 243, 4-(4-(6-amino-5-methoxypyridin-3-yl)-2-ethyl-1H-imidazol-5-yl)-N-(2-methoxypyridin-4-yl)pyrimidin-2-amine]
0.0002 µM | Cc1c[nH]c2ncc(-c3[nH]c(-c4ccc(F)cc4)nc3-c3ccncc3)cc12 [Compound 182, 5-(2-(4-fluorophenyl)-4-(pyridin-4-yl)-1H-imidazol-5-yl)-3-methyl-1H-pyrrolo[2,3-b]pyridine]
0.0064 µM | COc1cc(-c2[nH]c(-c3ccc(OCCN(C)C)cc3)nc2-c2ccncc2)cnc1N [Compound 114]
0.0011 µM | COc1cc(-c2nc(-c3ccccc3)[nH]c2-c2ccnc(NC[C@@H](C)O)n2)cnc1N [Compound 75, (R)-1-(4-(4-(6-amino-5-methoxypyridin-3-yl)-2-phenyl-1H-imidazol-5-yl)pyrimidin-2-ylamino)propan-2-ol]
0.465 µM | Oc1ccc(-c2[nH]c(-c3ccccc3)nc2-c2ccncc2)cn1 [Compound 44, 5-(2-phenyl-4-(pyridin-4-yl)-1H-imidazol-5-yl)pyridin-2-ol]
0.174 µM | Nc1ncc(-c2[nH]c(-c3ccc(F)cc3)nc2-c2ccncc2)cc1F [Compound 131, 3-fluoro-5-(2-(4-fluorophenyl)-4-(pyridin-4-yl)-1H-imidazol-5-yl)pyridin-2-amine]
0.0038 µM | COc1nc(-c2nc(C(C)(C)C)[nH]c2-c2ccnc(NC[C@H](C)NC(=O)[C@H](C)OC)n2)c(C)nc1N [Compound 254, (S)-N-((S)-1-(4-(4-(5-amino-6-methoxy-3-methylpyrazin-2-yl)-2-tert-butyl-1H-imidazol-5-yl)pyrimidin-2-ylamino)propan-2-yl)-2-methoxypropanamide]
0.0026 µM | COc1cc(-c2nc(C3=CCCCC3)[nH]c2-c2ccncc2)cnc1N [Compound 113, 5-(2-cyclohexenyl-5-(pyridin-4-yl)-1H-imidazol-4-yl)-3-methoxypyridin-2-amine]
0.004 µM | COc1cc(-c2[nH]c(-c3ccc(F)cc3)nc2-c2ccnc(N[C@H]3CCN(S(C)(=O)=O)C3)n2)cnc1N [Compound 200, (S)-4-(5-(6-amino-5-methoxypyridin-3-yl)-2-(4-fluorophenyl)-1H-imidazol-4-yl)-N-(1-(methylsulfonyl)pyrrolidin-3-yl)pyrimidin-2-amine]
0.0018 µM | COc1cc(-c2nc(C3=CCCC3)[nH]c2-c2ccncc2)cnc1N [Compound 127, 5-(2-cyclopentenyl-5-(pyridin-4-yl)-1H-imidazol-4-yl)-3-methoxypyridin-2-amine]
0.0029 µM | CNc1nccc(-c2[nH]c(-c3ccccc3)nc2-c2cnc(N)c(OC)c2)n1 [Compound 56, 4-(4-(6-amino-5-methoxypyridin-3-yl)-2-phenyl-1H-imidazol-5-yl)-N-methylpyrimidin-2-amine]
0.0003 µM | COc1cc(-c2[nH]c(-c3ccc(O)cc3)nc2-c2ccncc2)cnc1N [Compound 71, 4-(5-(6-amino-5-methoxypyridin-3-yl)-4-(pyridin-4-yl)-1H-imidazol-2-yl)phenol]
0.017 µM | c1ccc(-c2nc(-c3ccncc3)c(-c3ccc4cn[nH]c4c3)[nH]2)cc1 [Compound 32, 6-(2-phenyl-4-(pyridin-4-yl)-1H-imidazol-5-yl)-1H-indazole]
0.62 µM | c1ccc(-c2nc(-c3ccncc3)c(-c3ccsc3)[nH]2)cc1 [Compound 57, 4-(2-phenyl-5-(thiophen-3-yl)-1H-imidazol-4-yl)pyridine]
0.0003 µM | COc1cc(-c2nc(C(C)(C)C)[nH]c2-c2ccnc(NC[C@H](C)NC(=O)C(F)(F)F)n2)cnc1N [Compound 206, (S)-N-(1-(4-(4-(6-amino-5-methoxypyridin-3-yl)-2-tert-butyl-1H-imidazol-5-yl)pyrimidin-2-ylamino)propan-2-yl)-2,2,2-trifluoroacetamide]
0.0004 µM | COc1cc(-c2[nH]c(-c3ccccc3)nc2-c2ccnc(NCCNS(=O)(=O)c3ccc(Cl)cc3)n2)cnc1N [Compound 70, N-(2-(4-(5-(6-amino-5-methoxypyridin-3-yl)-2-phenyl-1H-imidazol-4-yl)pyrimidin-2-ylamino)ethyl)-4-chlorobenzenesulfonamide]
0.0006 µM | COc1cc(-c2[nH]c(-c3ccc(F)c(C)c3)nc2-c2ccncc2)cnc1N [Compound 149, 5-(2-(4-fluoro-3-methylphenyl)-4-(pyridin-4-yl)-1H-imidazol-5-yl)-3-methoxypyridin-2-amine]
0.0013 µM | COc1cc(-c2nc(C(C)(C)C)[nH]c2-c2ccnc(NC[C@H](C)NC(=O)[C@@H](C)OC)n2)cnc1N [Compound 225, (R)-N-((S)-1-(4-(4-(6-amino-5-methoxypyridin-3-yl)-2-tert-butyl-1H-imidazol-5-yl)pyrimidin-2-ylamino)propan-2-yl)-2-methoxypropanamide]
0.0003 µM | COCC(=O)N[C@@H](C)CNc1nccc(-c2[nH]c(C(C)C)nc2-c2cnc(N)c(OC)n2)n1 [Compound 227, (S)-N-(1-(4-(4-(5-amino-6-methoxypyrazin-2-yl)-2-isopropyl-1H-imidazol-5-yl)pyrimidin-2-ylamino)propan-2-yl)-2-methoxyacetamide]
0.0004 µM | COc1cc(-c2[nH]c(-c3ccc(C(F)(F)F)cc3)nc2-c2ccncc2)cnc1N [Example 2, 3-methoxy-5-(5-(pyridine-4-yl)-2-(4-(trifluoromethyl)phenyl)-1H-imidazol-4-yl)pyridin-2-amine]
0.416 µM | Fc1ccc(-c2nc(-c3ccncc3)c(-c3ccc4ncnn4c3)[nH]2)cc1 [Compound 130, 6-(2-(4-fluorophenyl)-4-(pyridin-4-yl)-1H-imidazol-5-yl)-[1,2,4]triazolo[1,5-a]pyridine]
0.099 µM | Cc1n[nH]c2ccc(-c3[nH]c(-c4ccccc4)nc3-c3ccncc3)cc12 [Compound 35, 3-methyl-5-(2-phenyl-4-(pyridin-4-yl)-1H-imidazol-5-yl)-1H-indazole]
0.0012 µM | CCCNc1nccc(-c2nc(-c3ccc(F)cc3)[nH]c2-c2cnc(N)c(OC)c2)n1 [Compound 175, 4-(5-(6-amino-5-methoxypyridin-3-yl)-2-(4-fluorophenyl)-1H-imidazol-4-yl)-N-propylpyrimidin-2-amine]
